From ChEMBL document CHEMBL5241065, “If small molecules immunotherapy comes, can the prime be far behind?” (Eur J Med Chem, 2021)
One block for each compound: values may come before it.

Legend:
[1] = target: T1, Stimulator of interferon genes protein (Homo sapiens, UniProt Q86WV6); experiment: Binding affinity to human STING assessed as dissociation constant by surface plasmon resonance
[2] = Agonist activity at TNFalpha (unknown origin); parameters: species or system Homo sapiens
[3] = Agonist activity at IFNalpha (unknown origin); parameters: species or system Homo sapiens
[4] = target: T2, Tyrosine-protein phosphatase non-receptor type 1 (Homo sapiens, UniProt P18031)
T2 sequence (P18031 whole entry): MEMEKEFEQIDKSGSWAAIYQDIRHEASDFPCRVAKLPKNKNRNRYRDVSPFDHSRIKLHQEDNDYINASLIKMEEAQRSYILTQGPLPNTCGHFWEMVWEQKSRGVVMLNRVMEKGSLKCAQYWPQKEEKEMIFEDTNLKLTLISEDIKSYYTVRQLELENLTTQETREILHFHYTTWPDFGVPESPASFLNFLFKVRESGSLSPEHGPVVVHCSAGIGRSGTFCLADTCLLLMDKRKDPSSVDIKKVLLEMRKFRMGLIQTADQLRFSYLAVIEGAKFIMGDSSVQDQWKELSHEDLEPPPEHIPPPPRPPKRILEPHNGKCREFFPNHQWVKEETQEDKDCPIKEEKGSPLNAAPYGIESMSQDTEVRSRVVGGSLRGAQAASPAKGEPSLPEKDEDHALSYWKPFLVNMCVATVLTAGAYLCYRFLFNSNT

[5] = target: Tyrosine-protein phosphatase non-receptor type 11 (Homo sapiens, UniProt Q06124); experiment: Inhibition of SHP2 1-525 mutant (unknown origin)
[6] = target: Tyrosine-protein phosphatase non-receptor type 11 (Homo sapiens, UniProt Q06124, Q257L/T253M); experiment: Inhibition of SHP2 T253M/Q257L mutant (unknown origin)
[7] = target: T3, Arginase-1 (Homo sapiens, UniProt P05089)
T3 sequence (P05089 whole entry): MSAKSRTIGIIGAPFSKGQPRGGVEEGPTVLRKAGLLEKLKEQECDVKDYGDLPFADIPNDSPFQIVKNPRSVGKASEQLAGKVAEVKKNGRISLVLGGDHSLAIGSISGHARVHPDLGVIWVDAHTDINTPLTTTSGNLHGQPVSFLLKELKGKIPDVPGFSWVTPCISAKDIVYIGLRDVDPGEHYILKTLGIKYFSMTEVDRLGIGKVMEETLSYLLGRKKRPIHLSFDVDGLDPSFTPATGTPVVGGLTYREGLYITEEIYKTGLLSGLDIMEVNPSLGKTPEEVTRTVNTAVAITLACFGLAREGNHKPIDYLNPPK

[8] = target: T4, Arginase-2, mitochondrial (Homo sapiens, UniProt P78540)
T4 sequence (P78540 whole entry): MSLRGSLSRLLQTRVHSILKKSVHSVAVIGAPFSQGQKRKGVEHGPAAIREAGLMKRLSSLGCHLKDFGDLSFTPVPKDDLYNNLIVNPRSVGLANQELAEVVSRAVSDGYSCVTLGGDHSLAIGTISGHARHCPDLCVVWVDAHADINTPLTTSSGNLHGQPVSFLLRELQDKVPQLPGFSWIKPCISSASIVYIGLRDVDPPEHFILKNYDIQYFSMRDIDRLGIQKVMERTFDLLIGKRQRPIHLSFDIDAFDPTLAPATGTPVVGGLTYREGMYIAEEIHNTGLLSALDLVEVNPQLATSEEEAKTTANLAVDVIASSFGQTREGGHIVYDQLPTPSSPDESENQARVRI

[9] = target: T1, Stimulator of interferon genes protein; experiment: Agonist activity at STING in human THP1-Dual cells assessed as increase in IFN-beta secretion incubated for 24 hrs; format: cell-based, THP-1
[10] = Binding affinity to A2aR (unknown origin); parameters: species or system Homo sapiens
[11] = target: Tyrosine-protein phosphatase non-receptor type 6 (Homo sapiens, UniProt P29350)
[12] = target: T5, Tyrosine-protein phosphatase non-receptor type 11 (Homo sapiens, UniProt Q06124)
T5 sequence (Q06124 whole entry): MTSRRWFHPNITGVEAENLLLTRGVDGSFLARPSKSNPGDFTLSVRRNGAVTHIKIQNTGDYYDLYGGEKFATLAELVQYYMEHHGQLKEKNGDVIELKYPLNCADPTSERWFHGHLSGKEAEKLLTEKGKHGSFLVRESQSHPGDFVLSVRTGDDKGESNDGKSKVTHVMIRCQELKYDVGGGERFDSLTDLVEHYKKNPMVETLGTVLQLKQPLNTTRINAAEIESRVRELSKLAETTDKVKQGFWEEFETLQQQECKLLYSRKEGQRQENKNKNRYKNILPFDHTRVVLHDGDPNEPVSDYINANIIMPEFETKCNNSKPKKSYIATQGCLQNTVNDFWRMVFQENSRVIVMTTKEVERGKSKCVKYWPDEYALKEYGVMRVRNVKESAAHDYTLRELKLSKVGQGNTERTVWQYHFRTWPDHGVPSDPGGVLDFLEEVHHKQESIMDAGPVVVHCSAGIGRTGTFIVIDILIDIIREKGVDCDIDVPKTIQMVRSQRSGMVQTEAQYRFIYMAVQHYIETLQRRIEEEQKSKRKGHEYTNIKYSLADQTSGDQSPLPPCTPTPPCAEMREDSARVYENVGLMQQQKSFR

[13] = target: T5, Tyrosine-protein phosphatase non-receptor type 11; experiment: Inhibition of SHP (unknown origin)
[14] = target: T3, Arginase-1; experiment: Inhibition of recombinant human ARG1 expressed in Escherichia coli using L-arginine hydrochloride as substrate incubated for 1 hr by colorimetric assay
[15] = system: L929; experiment: cells; conditions: Mus musculus
[16] = target: T5, Tyrosine-protein phosphatase non-receptor type 11; experiment: Inhibition of SHP2 (unknown origin) at 100 mg/mL
[17] = target: Tyrosine-protein phosphatase non-receptor type 11 (Homo sapiens, UniProt Q06124, E76K); experiment: Inhibition of SHP2 (unknown origin) E76K mutant
[18] = target: T5, Tyrosine-protein phosphatase non-receptor type 11; remark: listed apart in the source
[19] = target: T6, Phosphatidylinositol 3,4,5-trisphosphate 5-phosphatase 1 (Homo sapiens, UniProt Q92835); experiment: Inhibition of SHIP1 (unknown origin)
T6 sequence (Q92835 whole entry): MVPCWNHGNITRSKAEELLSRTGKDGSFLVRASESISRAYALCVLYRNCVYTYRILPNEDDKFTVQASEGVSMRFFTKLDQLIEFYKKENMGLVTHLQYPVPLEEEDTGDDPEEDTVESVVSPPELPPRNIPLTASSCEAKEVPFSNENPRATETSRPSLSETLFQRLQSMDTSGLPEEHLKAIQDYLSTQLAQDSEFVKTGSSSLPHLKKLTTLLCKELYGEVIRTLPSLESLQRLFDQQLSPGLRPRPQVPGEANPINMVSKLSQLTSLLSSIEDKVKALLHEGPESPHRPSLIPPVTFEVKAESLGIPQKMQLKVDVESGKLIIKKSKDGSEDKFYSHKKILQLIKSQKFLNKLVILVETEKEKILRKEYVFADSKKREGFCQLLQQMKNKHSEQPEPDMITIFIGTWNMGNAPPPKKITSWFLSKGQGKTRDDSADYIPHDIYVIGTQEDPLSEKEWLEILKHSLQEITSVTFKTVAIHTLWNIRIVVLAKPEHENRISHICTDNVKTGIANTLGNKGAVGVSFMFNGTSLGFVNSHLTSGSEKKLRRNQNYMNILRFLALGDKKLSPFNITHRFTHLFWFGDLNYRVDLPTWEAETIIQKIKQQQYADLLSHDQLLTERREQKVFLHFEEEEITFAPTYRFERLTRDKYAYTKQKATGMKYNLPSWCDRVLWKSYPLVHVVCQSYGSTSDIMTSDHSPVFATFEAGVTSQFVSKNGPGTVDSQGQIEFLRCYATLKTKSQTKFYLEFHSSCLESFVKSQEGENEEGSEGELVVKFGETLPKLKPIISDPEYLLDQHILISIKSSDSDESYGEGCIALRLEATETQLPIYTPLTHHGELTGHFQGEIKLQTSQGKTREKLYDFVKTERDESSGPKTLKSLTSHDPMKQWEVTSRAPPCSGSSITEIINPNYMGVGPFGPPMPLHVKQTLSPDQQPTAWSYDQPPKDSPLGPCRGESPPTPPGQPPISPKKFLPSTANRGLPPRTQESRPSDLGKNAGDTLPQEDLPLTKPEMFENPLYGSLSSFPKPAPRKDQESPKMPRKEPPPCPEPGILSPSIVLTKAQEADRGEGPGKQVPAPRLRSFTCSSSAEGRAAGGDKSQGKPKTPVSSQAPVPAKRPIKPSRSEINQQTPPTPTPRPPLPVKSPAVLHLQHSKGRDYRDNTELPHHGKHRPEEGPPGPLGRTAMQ

[20] = target: Programmed cell death 1 ligand 1 (Homo sapiens, UniProt Q9NZQ7)
[21] = target: T4, Arginase-2, mitochondrial; experiment: Inhibition of recombinant human ARG2 expressed in Escherichia coli using L-arginine hydrochloride as substrate incubated for 1 hr by colorimetric assay
[22] = target: T5, Tyrosine-protein phosphatase non-receptor type 11; remark: listed apart in the source
[23] = target: Tyrosine-protein kinase BTK (Homo sapiens, UniProt Q06187)
[24] = target: T7, Arginase-1 (Mus musculus, UniProt Q61176); experiment: Inhibition of mouse ARG1
T7 sequence (Q61176 whole entry): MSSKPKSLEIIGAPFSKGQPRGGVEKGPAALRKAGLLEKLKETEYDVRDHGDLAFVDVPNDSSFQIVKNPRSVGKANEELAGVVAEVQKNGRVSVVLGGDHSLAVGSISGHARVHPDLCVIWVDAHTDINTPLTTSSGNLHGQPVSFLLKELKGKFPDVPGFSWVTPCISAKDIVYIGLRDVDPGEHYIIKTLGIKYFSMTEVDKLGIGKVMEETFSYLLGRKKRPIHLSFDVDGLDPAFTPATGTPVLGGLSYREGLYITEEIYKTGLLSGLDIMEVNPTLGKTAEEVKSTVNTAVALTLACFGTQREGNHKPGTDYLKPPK

Tyrosine-protein phosphatase non-receptor type 6, sequence (P29350 whole entry): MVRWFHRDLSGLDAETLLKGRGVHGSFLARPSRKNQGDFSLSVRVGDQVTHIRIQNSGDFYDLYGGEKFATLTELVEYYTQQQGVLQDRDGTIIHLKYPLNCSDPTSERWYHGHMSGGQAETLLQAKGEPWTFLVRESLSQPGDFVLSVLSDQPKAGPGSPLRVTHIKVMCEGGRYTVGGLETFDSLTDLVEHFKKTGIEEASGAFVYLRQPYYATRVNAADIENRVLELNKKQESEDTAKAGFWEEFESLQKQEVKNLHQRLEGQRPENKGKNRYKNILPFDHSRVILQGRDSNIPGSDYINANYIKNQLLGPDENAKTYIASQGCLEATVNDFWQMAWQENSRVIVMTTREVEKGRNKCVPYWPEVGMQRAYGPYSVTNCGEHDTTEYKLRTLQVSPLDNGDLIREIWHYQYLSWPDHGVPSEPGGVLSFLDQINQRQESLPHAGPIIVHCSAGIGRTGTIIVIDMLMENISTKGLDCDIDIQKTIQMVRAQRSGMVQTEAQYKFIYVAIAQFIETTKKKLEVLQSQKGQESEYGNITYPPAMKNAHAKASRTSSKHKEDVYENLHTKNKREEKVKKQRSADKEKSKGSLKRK
T1 sequence (Q86WV6 whole entry): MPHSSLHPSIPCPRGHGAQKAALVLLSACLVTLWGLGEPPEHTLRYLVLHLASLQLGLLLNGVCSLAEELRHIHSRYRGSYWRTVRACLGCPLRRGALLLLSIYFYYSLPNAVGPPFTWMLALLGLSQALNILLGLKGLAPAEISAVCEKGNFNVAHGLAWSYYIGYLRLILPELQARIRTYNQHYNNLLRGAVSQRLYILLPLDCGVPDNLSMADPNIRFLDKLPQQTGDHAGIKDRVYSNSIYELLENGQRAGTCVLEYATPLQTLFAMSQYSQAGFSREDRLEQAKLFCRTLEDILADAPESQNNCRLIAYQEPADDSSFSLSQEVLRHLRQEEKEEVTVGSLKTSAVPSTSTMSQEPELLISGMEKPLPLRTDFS
Tyrosine-protein phosphatase non-receptor type 11 (Homo sapiens, UniProt Q06124, Q257L/T253M), sequence (Q06124 2-593 T253M/Q257L limits assumed): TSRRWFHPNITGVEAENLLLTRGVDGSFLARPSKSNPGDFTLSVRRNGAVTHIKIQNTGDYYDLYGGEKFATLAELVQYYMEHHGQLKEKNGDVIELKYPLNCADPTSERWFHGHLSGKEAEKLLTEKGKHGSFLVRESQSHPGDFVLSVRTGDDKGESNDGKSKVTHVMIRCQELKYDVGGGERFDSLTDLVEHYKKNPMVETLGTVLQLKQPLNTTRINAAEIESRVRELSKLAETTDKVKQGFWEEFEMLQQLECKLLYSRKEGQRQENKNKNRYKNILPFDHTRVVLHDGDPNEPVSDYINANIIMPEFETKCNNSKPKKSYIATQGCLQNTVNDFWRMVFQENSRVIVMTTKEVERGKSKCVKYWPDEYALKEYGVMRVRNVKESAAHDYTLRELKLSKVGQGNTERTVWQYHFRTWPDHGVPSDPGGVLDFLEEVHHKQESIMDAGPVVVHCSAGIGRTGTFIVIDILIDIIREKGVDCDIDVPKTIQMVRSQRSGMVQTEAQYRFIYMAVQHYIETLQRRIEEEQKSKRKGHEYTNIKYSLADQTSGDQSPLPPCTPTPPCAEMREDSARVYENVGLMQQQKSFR
Tyrosine-protein phosphatase non-receptor type 11 (Homo sapiens, UniProt Q06124, E76K), sequence (Q06124 2-593 E76K limits assumed): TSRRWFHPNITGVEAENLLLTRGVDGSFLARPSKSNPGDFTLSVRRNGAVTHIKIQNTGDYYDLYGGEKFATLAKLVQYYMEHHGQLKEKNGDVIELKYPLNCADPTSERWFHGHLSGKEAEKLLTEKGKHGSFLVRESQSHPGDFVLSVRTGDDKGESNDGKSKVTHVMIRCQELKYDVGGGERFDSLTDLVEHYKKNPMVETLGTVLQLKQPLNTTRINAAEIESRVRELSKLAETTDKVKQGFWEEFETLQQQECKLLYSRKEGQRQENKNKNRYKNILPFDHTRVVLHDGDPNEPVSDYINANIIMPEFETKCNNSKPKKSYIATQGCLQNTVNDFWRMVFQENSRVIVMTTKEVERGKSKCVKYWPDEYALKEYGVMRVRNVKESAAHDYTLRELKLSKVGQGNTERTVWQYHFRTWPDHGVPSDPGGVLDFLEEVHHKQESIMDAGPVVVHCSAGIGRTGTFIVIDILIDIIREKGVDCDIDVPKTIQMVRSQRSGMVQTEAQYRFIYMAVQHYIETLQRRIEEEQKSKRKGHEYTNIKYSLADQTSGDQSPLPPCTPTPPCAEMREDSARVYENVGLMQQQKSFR
Programmed cell death 1 ligand 1, sequence (Q9NZQ7 whole entry): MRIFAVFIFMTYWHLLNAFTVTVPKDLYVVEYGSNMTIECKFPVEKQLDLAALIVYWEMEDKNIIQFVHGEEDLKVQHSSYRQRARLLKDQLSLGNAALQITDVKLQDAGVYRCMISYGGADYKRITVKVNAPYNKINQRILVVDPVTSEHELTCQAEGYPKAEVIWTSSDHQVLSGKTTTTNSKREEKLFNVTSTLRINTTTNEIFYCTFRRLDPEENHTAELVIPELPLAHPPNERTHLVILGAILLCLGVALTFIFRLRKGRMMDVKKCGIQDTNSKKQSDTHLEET
Tyrosine-protein kinase BTK, sequence (Q06187 whole entry): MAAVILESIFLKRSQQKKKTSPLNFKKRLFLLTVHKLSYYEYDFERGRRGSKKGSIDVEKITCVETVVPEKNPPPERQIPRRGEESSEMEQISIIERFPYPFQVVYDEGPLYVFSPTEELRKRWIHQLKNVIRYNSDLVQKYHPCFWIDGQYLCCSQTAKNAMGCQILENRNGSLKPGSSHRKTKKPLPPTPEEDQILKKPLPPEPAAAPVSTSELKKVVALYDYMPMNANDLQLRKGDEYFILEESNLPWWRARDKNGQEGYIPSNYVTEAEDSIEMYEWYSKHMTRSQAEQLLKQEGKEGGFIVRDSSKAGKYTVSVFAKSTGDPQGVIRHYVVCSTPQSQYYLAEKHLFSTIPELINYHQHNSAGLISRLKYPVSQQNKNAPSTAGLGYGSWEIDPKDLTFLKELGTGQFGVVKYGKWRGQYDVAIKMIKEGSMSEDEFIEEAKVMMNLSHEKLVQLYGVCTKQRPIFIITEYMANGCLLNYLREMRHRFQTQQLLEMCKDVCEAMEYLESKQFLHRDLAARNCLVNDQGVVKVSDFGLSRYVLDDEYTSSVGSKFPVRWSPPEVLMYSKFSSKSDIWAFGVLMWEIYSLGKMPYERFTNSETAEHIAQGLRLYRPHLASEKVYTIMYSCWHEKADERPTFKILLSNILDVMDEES

Compound: COc1c(O)cc2oc3cc(O)c(CC=C(C)C)c(O)c3c(=O)c2c1CC=C(C)C [MANGOSTIN]
Kd [1]: 137000 nM

Compound: CCC[C@H](C)Oc1nc(N)c2[nH]c(=O)n(CCCCCN3CCCCC3)c2n1 [GSK-2245035]
pEC50 [2]: 6.5
pEC50 [3]: 9.3

Compound: COc1cccc(-c2nnc3n(Cc4ccccc4Cl)c(=O)c4ccccc4n23)c1O
IC50 [5]: 60000 nM
IC50 [6]: 60000 nM

Compound: N[C@@H](CCCCB(O)O)C(=O)O
IC50 [7]: 5 nM
IC50 [8]: 8.5 nM

Compound: CCn1nc(C)cc1C(=O)/C=C1\Nc2cc(C(N)=O)cc(CCCN3CCOCC3)c2N1C/C=C/CN1/C(=C/C(=O)c2cc(C)nn2CC)Nc2cc(C(N)=O)cc(OC)c21
EC50 [9]: 130 nM

Compound: N=C(NO)NCCC[C@H](N)C(=O)O
IC50 [7]: 3600 nM
IC50 [14]: 150 nM
IC50 [8]: 1600 nM

Compound: NC1=NC2C(N=CN2[C@@H]2O[C@@H]3COP(=O)(O)O[C@H]4[C@@H](O)[C@H](N5C=NC6C(=O)NC(N)=NC65)O[C@@H]4COP(=O)(O)O[C@H]3[C@H]2O)C(=O)N1 (stereo not given in full)
EC50 [15]: > 500 nM

Compound: N[C@](CCCCB(O)O)(CCN1CCCCC1)C(=O)O
IC50 [14]: 509 nM

Compound: N[C@@H](CSCCB(O)O)C(=O)O
IC50 [7]: 270 nM
IC50 [8]: 30 nM

Compound: N=C(NO)NCC[C@H](N)C(=O)O [NOR-NOHA]
IC50 [8]: 51 nM

Compound: CC(C)CCC[C@@H](C)[C@H]1CC[C@H]2[C@]3(C)CC[C@H]4C[C@H](N)CC[C@]4(C)[C@H]3CC[C@@]21C
IC50 [19]: 2500 nM

Compound: N#Cc1cncc(COc2cc(OC3CCc4c(-c5ccccc5)cccc43)c(Cl)cc2CN[C@@H](CO)C(=O)O)c1 (stereo not given in full)
IC50 [20]: < 100 nM

Compound: N[C@@](CCCCB(O)O)(C(=O)O)C1CCN(Cc2ccc(Cl)c(Cl)c2)CC1
IC50 [14]: 200 nM
IC50 [21]: 290 nM

Now from value to compound:

IC50 [4]: 1690 nM
Compound: O=C1Nc2ccc(S(=O)(=O)NCc3ccc(F)cc3)cc2/C1=N/Nc1cccc(C(=O)O)c1

Ki [10]: 8.2 nM
Compound: Nc1nc(-n2cccn2)nc(-n2cccn2)c1Br [PBF-509]

IC50 [4]: 2100 nM
IC50 [11]: 15700 nM
IC50 [12]: 5500 nM
Compound: Cn1cc(-c2cn(CC(=O)Nc3nc4ccccc4s3)nn2)c2cc(C(=O)O)c(O)cc21

IC50 [4]: 14300 nM
IC50 [11]: 335 nM
Compound: O=S(=O)(O)c1ccc2cc(/N=N/c3cc(S(=O)(=O)O)c4cccnc4c3O)ccc2c1

IC50 [13]: 71 nM
Compound: Cc1nc(N2CCC(C)(N)CC2)c(CO)nc1-c1cccc(Cl)c1Cl

IC50 [16]: > 100000 nM
Compound: COC(=O)c1cccc(N/N=C2\C(=O)Nc3ccc(S(=O)(=O)NCc4ccc(F)cc4)cc32)c1

IC50 [4]: 19000 nM
IC50 [11]: 1800 nM
IC50 [12]: 630 nM
Compound: CCOC(=O)c1ccc(N2NC(c3ccc([N+](=O)[O-])cc3)/C(=N/Nc3ccc(S(=O)(=O)O)cc3)C2=O)cc1 (stereo not given)

IC50 [17]: 7670 nM
IC50 [18]: 9.8 nM
Compound: CCOc1cc(O)c(C(=O)/C=C/c2ccc(Cl)cc2Cl)cc1CN1CCC=C(C2C(=O)Nc3ccccc32)C1 (stereo not given)

IC50 [13]: 23 nM
IC50 [18]: 23 nM
Compound: C[C@@H]1OCC2(CCN(c3nc(N)c(Sc4cccnc4C(F)(F)F)c(=O)n3O)CC2)[C@@H]1N

IC50 [14]: 86 nM
IC50 [21]: 296 nM
Compound: NC(CCCCB(O)O)(C(=O)O)C1CCN(Cc2ccc(Cl)cc2Cl)CC1 (stereo not given)

IC50 [4]: 14500 nM
IC50 [11]: 30000 nM
IC50 [12]: 30000 nM
Compound: O=C1/C(=N\Nc2ccc(S(=O)(=O)O)cc2)C(c2ccc([N+](=O)[O-])cc2)NN1c1ccccc1 (stereo not given)

IC50 [22]: 47000 nM
IC50 [12]: 47000 nM
Compound: O=C1Nc2cc(S(=O)(=O)O)ccc2C1/N=N/c1ccccc1[N+](=O)[O-] (stereo not given)

IC50 [23]: 0.5 nM
Compound: Cc1c(-c2c(F)cc(C(N)=O)c3[nH]c4c(c23)CC[C@H](C(C)(C)O)C4)cccc1N1C(=O)c2cccc(F)c2C(C)C1=O (stereo not given in full)

IC50 [24]: 11200 nM
Compound: OC[C@H]1O[C@H](Oc2cc(/C=C/c3cc(O)cc(O)c3)ccc2O)[C@H](O)[C@@H](O)[C@@H]1O
